Values quoted from earlier work in publication PMC12019481 (Nature Communications, 2025).

Columns and labels:
GAT1 = GAT1 (Homo sapiens, UniProt P30531)
Chain of GAT1 (P30531 whole entry): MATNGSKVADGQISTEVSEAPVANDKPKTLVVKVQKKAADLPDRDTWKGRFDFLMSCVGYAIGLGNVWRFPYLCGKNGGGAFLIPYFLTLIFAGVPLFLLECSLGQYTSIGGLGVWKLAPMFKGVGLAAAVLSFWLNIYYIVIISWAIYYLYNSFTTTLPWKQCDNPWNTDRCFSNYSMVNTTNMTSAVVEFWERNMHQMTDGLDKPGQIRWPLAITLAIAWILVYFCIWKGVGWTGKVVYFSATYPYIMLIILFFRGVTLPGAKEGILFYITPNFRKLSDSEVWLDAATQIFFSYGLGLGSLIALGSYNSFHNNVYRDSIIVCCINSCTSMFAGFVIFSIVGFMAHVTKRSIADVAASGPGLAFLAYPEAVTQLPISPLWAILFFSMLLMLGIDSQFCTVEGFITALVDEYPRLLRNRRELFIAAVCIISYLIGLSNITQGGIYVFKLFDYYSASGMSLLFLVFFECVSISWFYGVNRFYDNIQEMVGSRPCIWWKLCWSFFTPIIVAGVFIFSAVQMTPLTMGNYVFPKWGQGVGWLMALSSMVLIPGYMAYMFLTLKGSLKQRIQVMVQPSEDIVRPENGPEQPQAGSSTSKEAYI

selectivity for GAT1 (GAT1) | Compound | selectivity for GAT3 (GAT3)
10,000–20,000 fold | Cc1ccsc1C(=CCCN1CCC[C@@H](C(=O)O)C1)c1sccc1C [tiagabine] | –
– | 5-(2-Thienyl)Isatin | ~ 167 fold
